According to US8445246B2, “Flavin-binding glucose dehydrogenases” (Kikkoman Corporation, priority 2009, dated 2013):

How the values were obtained:
[1] = test system: MpGDH; assay: Inhibiting effect of 1,10-phenanthroline on MpGDH; assay type: biochemical, Mucor prainii NISL0103
From the text: (§1) The inhibiting effect of […] on the activity of the flavin-binding GDH of the invention was examined in the following manner.

[2] = test system: MjGDH; assay: Inhibiting effect of 1,10-phenanthroline on MjGDH; assay type: biochemical, Mucor javanicus NISL0111
From the text: as §1

[3] = test system: McGDH; assay: Inhibiting effect of 1,10-phenanthroline on McGDH; assay type: biochemical, Mucor circinelloides f. circinelloides NISL0117
From the text: as §1

[4] = test system: flavin-binding GDH of the invention; assay: Inhibiting effect of 1,10-phenanthroline; assay type: biochemical
From the text: as §1

## c1cnc2c(c1)ccc1cccnc12 [1,10-phenanthroline]
[1]; 1,10-phenanthroline 1 mM
  GDH inhibition rate (%): 3.72%
[1]; 1,10-phenanthroline 5 mM
  GDH inhibition rate (%): 10.1%
[1]; 1,10-phenanthroline 10 mM
  GDH inhibition rate (%): 23.9%
[1]; 1,10-phenanthroline 25 mM
  GDH inhibition rate (%): 44.1%
[1]; 1,10-phenanthroline 50 mM
  GDH inhibition rate (%): 68.6%
[2]; 1,10-phenanthroline 1 mM
  GDH inhibition rate (%): 3.27%
[2]; 1,10-phenanthroline 5 mM
  GDH inhibition rate (%): 13.1%
[2]; 1,10-phenanthroline 10 mM
  GDH inhibition rate (%): 23.5%
[2]; 1,10-phenanthroline 25 mM
  GDH inhibition rate (%): 64.7%
[2]; 1,10-phenanthroline 50 mM
  GDH inhibition rate (%): 88.9%
[3]; 1,10-phenanthroline 1 mM
  GDH inhibition rate (%): 1.95%
[3]; 1,10-phenanthroline 5 mM
  GDH inhibition rate (%): 8.23%
[3]; 1,10-phenanthroline 10 mM
  GDH inhibition rate (%): 12.8%
[3]; 1,10-phenanthroline 25 mM
  GDH inhibition rate (%): 36.2%
[3]; 1,10-phenanthroline 50 mM
  GDH inhibition rate (%): 68.5%
[4]; 1 mM 1,10-phenanthroline
  inhibiting effect: 2-4%
[4]; 5 mM 1,10-phenanthroline
  inhibition rate: about 10%
